Legend:
Assay type in all cases: binding
GABBR1 = biological target: T1, GABBR1 (Homo sapiens, UniProt Q9UBS5); assay: NanoBRET screen HiBiT-GABBR1 in HEK293; conditions: GABBR1
T1 construct: purchased Promega (in-house HiBiT-GPCR construct library, NanoBRET)
Experimental: (§1) Each tracer candidate was screened across the entire library of HiBiT-GPCR constructs using NanoBRET as the detection modality. As depicted in Figure 4A, the specificity of interactions was evaluated through decrease in BRET due to competitive displacement of a bound tracer by excess parental compound. Each tracer was analyzed for binding to each HiBiT-GPCR fusion in the absence and in the presence of competing parental compound. Briefly, HEK293 cells were transfected with HiBiT-GPCR constructs diluted into promoterless DNA to reduce expression and maximize translocation to the cell surface. Each tracer candidate was then screened at concentrations of 1 μM and 0.1 μM across cells expressing these fusions. Cells were treated for 1.5 h with tracer either alone or in the presence of 20 μM competing parental compound (i.e., control). BRET was measured upon addition of purified LgBiT and subsequent complementation with HiBiT genetically fused to a GPCR. The specificity of interactions was assessed through a decrease in BRET signal due to competitive displacement of the bound tracer. To further gauge the robustness of these interactions, the fold response over the control (i.e., BRETtracer/BRETcontrol) was calculated. We chose a 1.5-fold response, which translates to ≥7-fold signal over noise as the minimal threshold required to score an interaction as positive. […]. Below we highlight the screening results obtained for our exemplary fluorescent tracers based on Clozapine, Amitriptyline and AZD1283.
(§2) HiBiT-GPCR DNA constructs were diluted in 10 mM Tris pH 8 to a final concentration of 0.01 μg/μL, arrayed in 96-well plates and stored at −20 °C. For transfection, HEK293 cells were suspended in Opti-MEM (without phenol red) supplemented with 2% fetal bovine serum (Seradigm) and 100 units/mL penicillin–streptomycin (Gibco) at a final concentration of 220,000 cells/mL and dispensed into white 96-well plates at 90 μL/well. Subsequent transfections and screens were carried using an Agilent Bravo Automated Liquid Handling Platform. First, the 96-well HiBiT DNA arrays were diluted 25-fold in Opti-MEM (without serum or phenol red) to a final concentration of 0.0004 μg/μL and 20 μL of the diluted DNAs were transferred into new 96-well plates. Next, promoterless carrier DNA (1 μg/μL) was diluted 25-fold (0.04 μg/μL) and then dispensed into the diluted arrays at 20 μL/well. Following brief mixing, Viafect transfection reagent (Promega) diluted 16-fold into Opti-MEM was dispensed into the plates at 40 μL/well. After mixing by pipetting, plates were incubated for 10 min on the pipetting station deck. The DNA-transfection reagent complexes were then added to plates containing cells. To facilitate the screen, 10 μL of DNA-transfection reagent complexes were added in duplicates to the top 4 and bottom 4 rows, resulting in two identical 48-well arrays per plate. Plates with transfected cells were incubated for 18–20 h at 37 °C/5% CO2. A screen of each tracer across the entire library using two different concentrations requires duplicate plates of transfected cells. Depending on the number of tracers being screened, transfections can be scaled up using the same ratios. The next day, for each tracer, four 20× screening solutions in tracer dilution buffer (Promega) were prepared: two duplicates at final concentration of 20 μM and two duplicates at a final concentration of 2 μM. A competing unmodified compound was added to one of each duplicate at a final concentration of 400 μM. The four resulting solutions were diluted 4-fold in Opti-MEM without serum or phenol red to generate 5× solutions (5 µM and 0.5 µM tracer +/− 100 μM competing compound). To screen the library, a BioTek MultiFlo FX liquid dispenser was used to dispense 22.5 µL of tracer solution to the top 4 rows and 22.5 µL tracer + competing compound solution to the 4 bottom rows. Plates were briefly mixed on an orbital shaker and incubated for 1.5 h at room temperature. […]

GRPR = biological target: T2, GRPR (Homo sapiens, UniProt P30550); assay: NanoBRET screen HiBiT-GRPR in HEK293; conditions: GRPR
T2 construct: purchased Promega (in-house HiBiT-GPCR construct library, NanoBRET)
T2 sequence (P30550 whole entry): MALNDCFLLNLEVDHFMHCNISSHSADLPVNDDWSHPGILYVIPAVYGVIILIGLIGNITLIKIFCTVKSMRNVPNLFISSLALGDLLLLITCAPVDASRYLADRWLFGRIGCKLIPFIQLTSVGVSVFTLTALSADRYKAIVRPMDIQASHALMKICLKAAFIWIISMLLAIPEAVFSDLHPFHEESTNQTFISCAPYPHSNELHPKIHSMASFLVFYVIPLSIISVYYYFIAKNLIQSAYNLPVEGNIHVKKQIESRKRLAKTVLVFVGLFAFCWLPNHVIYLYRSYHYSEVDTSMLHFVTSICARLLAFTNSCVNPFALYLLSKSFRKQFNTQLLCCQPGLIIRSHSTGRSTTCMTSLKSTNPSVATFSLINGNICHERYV
Experimental: as §1, §2

CNR1 = biological target: T3, CNR1 (Homo sapiens, UniProt P21554); assay: NanoBRET screen HiBiT-CNR1 in HEK293; conditions: CNR1
T3 construct: purchased Promega (in-house HiBiT-GPCR construct library, NanoBRET)
T3 sequence (P21554 whole entry): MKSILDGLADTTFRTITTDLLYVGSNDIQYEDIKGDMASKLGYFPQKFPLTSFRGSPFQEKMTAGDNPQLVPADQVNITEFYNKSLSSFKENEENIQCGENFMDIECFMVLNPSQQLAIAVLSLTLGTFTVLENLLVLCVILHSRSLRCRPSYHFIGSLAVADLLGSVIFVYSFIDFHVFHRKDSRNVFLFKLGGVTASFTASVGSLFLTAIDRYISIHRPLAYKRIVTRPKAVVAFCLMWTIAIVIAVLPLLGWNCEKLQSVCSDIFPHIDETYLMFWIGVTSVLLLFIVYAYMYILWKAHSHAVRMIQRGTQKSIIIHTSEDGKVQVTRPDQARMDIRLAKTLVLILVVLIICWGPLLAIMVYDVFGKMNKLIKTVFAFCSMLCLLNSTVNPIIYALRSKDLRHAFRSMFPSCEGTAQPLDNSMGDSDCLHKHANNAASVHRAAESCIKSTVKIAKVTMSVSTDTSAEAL
Experimental: as §1, §2

GRM3 = biological target: T4, GRM3 (Homo sapiens, UniProt Q14832); assay: NanoBRET screen HiBiT-GRM3 in HEK293; conditions: GRM3
T4 construct: purchased Promega (in-house HiBiT-GPCR construct library, NanoBRET)
T4 sequence (Q14832 23-879): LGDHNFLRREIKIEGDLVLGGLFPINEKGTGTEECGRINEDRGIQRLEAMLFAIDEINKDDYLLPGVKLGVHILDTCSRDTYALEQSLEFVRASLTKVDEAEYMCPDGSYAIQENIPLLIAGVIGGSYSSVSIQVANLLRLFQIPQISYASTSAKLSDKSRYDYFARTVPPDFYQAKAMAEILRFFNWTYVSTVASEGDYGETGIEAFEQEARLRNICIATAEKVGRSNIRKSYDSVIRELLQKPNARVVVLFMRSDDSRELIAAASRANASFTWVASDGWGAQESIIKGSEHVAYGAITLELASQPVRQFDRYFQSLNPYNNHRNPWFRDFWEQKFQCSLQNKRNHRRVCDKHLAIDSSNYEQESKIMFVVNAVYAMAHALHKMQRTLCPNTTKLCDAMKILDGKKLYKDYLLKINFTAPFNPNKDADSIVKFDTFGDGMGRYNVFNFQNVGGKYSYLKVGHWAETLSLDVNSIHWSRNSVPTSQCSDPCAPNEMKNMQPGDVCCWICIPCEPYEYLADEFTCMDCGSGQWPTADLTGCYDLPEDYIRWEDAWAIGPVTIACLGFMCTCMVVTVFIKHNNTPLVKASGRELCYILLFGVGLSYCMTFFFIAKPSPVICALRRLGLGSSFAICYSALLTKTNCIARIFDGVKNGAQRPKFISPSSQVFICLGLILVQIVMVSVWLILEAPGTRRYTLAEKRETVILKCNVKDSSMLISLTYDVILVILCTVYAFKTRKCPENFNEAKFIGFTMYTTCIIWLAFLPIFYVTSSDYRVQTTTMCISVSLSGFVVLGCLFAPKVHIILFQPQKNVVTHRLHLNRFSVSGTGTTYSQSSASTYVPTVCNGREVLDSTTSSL
Experimental: as §1, §2

T1 sequence (Q9UBS5 15-961 limits assumed): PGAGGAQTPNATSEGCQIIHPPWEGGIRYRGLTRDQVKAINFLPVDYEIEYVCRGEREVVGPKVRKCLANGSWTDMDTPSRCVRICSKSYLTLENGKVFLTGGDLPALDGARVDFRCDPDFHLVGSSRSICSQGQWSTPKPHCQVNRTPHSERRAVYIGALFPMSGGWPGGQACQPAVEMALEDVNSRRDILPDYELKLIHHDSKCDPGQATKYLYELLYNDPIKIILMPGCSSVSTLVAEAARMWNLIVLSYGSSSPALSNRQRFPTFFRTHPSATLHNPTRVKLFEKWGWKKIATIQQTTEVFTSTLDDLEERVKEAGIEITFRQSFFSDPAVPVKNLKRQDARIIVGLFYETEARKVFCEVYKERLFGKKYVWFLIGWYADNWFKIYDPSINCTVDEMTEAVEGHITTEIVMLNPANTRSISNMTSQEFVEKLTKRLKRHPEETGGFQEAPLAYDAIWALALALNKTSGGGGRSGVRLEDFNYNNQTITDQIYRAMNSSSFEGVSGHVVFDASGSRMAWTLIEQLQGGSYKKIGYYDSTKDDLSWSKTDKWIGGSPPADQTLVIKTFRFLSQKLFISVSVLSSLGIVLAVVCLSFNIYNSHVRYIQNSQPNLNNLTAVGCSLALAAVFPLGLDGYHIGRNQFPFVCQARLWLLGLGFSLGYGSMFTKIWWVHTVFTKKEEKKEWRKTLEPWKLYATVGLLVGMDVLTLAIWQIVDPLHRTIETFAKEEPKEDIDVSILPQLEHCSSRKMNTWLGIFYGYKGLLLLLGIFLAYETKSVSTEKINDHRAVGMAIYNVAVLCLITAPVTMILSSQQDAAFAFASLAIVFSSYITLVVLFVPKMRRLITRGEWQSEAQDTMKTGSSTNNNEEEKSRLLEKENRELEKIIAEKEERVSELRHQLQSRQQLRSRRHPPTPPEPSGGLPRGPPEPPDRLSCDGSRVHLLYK

Compound | NanoBRET Fold Response (GABBR1; 0.1μM) | NanoBRET Fold Response (GABBR1; 1μM) | NanoBRET Fold Response (GRPR; 0.1μM) | NanoBRET Fold Response (GRPR; 1μM) | NanoBRET Fold Response (CNR1; 0.1μM) | NanoBRET Fold Response (CNR1; 1μM) | NanoBRET Fold Response (GRM3; 0.1μM) | NanoBRET Fold Response (GRM3; 1μM) | NanoBRET Fold Response (GABBR1; tracer 0.1μM) | NanoBRET Fold Response (GABBR1; tracer 1μM) | NanoBRET Fold Response (GRPR; tracer 0.1μM) | NanoBRET Fold Response (GRPR; tracer 1μM) | NanoBRET Fold Response (CNR1; tracer 0.1μM) | NanoBRET Fold Response (CNR1; tracer 1μM) | NanoBRET Fold Response (GRM3; tracer 0.1μM) | NanoBRET Fold Response (GRM3; tracer 1μM)
O=C(CCc1ccc2n1[B-](F)(F)[N+]1=C(c3ccc[nH]3)C=CC1=C2)NCc1ccc(C(=O)NCCOCCOCCNCC(O)COc2cccc3ccccc23)cc1 (stereo not drawn) [Propranolol-3-NB590] | 1.10 | 1.05 | 0.99 | 1.03 | 0.99 | 1.00 | 1.02 | 0.95 |  |  |  |  |  |  |  | 
O=C(CCc1ccc2n1[B-](F)(F)[N+]1=C(c3ccc[nH]3)C=CC1=C2)NCCOCCOCCNC(=O)OCCOCCN1CCN(C2=Nc3ccccc3Sc3ccccc32)CC1 [Quetiapine-a-2-NB590] |  |  |  |  |  |  |  |  | 1.22 | 0.93 | 0.66 | 0.84 | 1.00 | 1.00 | 1.08 | 1.09
Cc1nc2n(c(=O)c1CCN1CCC(c3noc4cc(F)ccc34)CC1)CCCC2OC(=O)NCCOCCOCCOCCOCCNC(=O)CCc1ccc2n1[B-](F)(F)[N+]1=C(c3ccc[nH]3)C=CC1=C2 (stereo not drawn) [Risperidone-2-NB590] |  |  |  |  |  |  |  |  | 1.09 | 0.87 | 0.96 | 0.91 | 1.00 | 1.02 | 1.07 | 1.07
CC(C)N(CC[C@H](c1ccccc1)c1cc(CCNC(=O)CCOCCOCCOCCOCCNC(=O)CCc2ccc3n2[B-](F)(F)[N+]2=C(c4ccc[nH]4)C=CC2=C3)ccc1O)C(C)C [Tolterodine-2-NB590] |  |  |  |  |  |  |  |  | 1.32 | 1.14 | 0.89 | 0.91 | 1.03 | 1.14 | 0.82 | 1.09
CC(C)N(CC[C@H](c1ccccc1)c1cc(CCNC(=O)c2ccc(CNC(=O)CCc3ccc4n3[B-](F)(F)[N+]3=C(c5ccc[nH]5)C=CC3=C4)cc2)ccc1O)C(C)C [Tolterodine-BZ-NB590] |  |  |  |  |  |  |  |  | 0.92 | 0.87 | 0.81 | 0.99 | 1.01 | 0.13 | 0.99 | 1.06
CCCn1c(=O)c2[nH]c(-c3ccc(OCC(=O)NCCNC(=O)CCOCCNC(=O)c4ccc(CNC(=O)CCc5ccc6n5[B-](F)(F)[N+]5=C(c7ccc[nH]7)C=CC5=C6)cc4)cc3)nc2n(CCC)c1=O [XAC-3-NB590] |  |  |  |  |  |  |  |  | 0.86 | 1.00 | 1.24 | 1.01 | 1.01 | 1.00 | 1.02 | 1.10
